Experimental data as given in ChEMBL document CHEMBL1201862, “PubChem BioAssay data set” (2004).
The source made the active and inactive calls.

What was measured:
[1] = viability of PTEN-deleted HCT116 cells – cell-based, HCT116 PTEN knockout, dose response (AID 1047); assay type: functional;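 also: HCT116 colon tumor cells with PTEN knocked out; cells exposed to compound for 60 hours before readout; potency for loss of cell viability measured by luminescence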
[2] = viability of HCT116 lacking mutant beta-catenin – cell-based, human colon tumor, dose response (AID 1045); assay type: functional;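 also: HCT116 colon tumor cells with beta catenin knocked out; cells exposed to compound for 60 hours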
HEK293 = assay: EBV LMP1 TES2 canonical NF-kB signalling blockers – cell-based, HEK293, luciferase, cherry-pick, dose response (AID 588343); assay type: functional; conditions: Homo sapiens
[3] = molecular target: T1, RNA-binding protein pos-1 (Caenorhabditis elegans, UniProt G5EF15); assay: disruptors of C. elegans POS-1 RNA interaction – biochemical, fluorescence polarization, dose response (AID 1964);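 also: purified POS-1 fused to maltose binding protein made in E. coli; potency of compounds blocking POS-1 binding to fluorescent RNA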
T1 sequence (G5EF15 whole entry): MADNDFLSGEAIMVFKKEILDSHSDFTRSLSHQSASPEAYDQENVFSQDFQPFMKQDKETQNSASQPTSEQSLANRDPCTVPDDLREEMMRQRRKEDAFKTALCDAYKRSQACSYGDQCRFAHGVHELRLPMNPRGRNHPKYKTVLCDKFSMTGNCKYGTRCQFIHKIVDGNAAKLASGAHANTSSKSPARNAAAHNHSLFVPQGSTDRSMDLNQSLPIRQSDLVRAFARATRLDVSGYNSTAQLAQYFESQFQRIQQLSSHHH

[4] = A cytotoxicity screen of small molecule inhibitors of the PhoP region in Salmonella typhi identified in the primary screen. [Related pubchem assays: 1850, 1864, 1985 ]; assay type: functional
cells [5] = assay type: functional, cell-based
cells [6] = assay type: functional, cell-based; remark: listed apart in the source
INS1 = assay: INS-1E survival protection against cytokine death – cell-based, luminescence, retest, dose response (AID 449756); assay type: functional; conditions: Rattus norvegicus;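 also: cell death triggered by IL-1 beta plus TNF-alpha plus IFN-gamma mixture; protective hits raise ATP signal compared with cytokine alone wells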
[7] = molecular target: Heat shock protein HSP 90-alpha (Homo sapiens, UniProt P07900); assay type: functional, organism-based
Streptokinase A = molecular target: T2, Streptokinase A (Streptococcus pyogenes serotype M1, UniProt P10520); assay: viability-normalized secreted streptokinase activity reduction – plasminogen activation absorbance, OD405, dose response (AID 1914); assay type: functional, Streptococcus pyogenes M1 GAS;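 also: secreted streptokinase activity via plasminogen activation per viability signal from cell pellet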
T2 sequence (P10520 whole entry): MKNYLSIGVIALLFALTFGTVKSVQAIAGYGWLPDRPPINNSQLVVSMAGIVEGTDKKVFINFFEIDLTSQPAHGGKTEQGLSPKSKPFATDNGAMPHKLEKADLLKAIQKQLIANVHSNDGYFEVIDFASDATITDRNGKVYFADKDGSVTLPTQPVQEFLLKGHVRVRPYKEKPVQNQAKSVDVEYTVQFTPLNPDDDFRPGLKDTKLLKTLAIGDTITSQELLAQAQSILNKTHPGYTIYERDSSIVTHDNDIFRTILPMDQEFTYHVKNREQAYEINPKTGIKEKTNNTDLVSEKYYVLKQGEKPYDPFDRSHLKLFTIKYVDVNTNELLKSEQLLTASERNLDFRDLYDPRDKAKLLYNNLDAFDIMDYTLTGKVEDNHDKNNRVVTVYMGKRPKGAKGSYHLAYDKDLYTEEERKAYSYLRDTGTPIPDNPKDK

[8] = viability of uninfected HEp-2 cells – cell-based, HTS, cytotoxicity control for RSV inhibitor project, dose response (AID 2410); assay type: functional; conditions: human respiratory syncytial virus
cells [9] = assay: cells
[10] = luciferase reporter signal suppression in cells – H4 neuroglioma cells, luminescence, dose response (AID 1990); assay type: functional, cell-based
[11] = Luminescence Cell-Based Dose Response HTS to Identify Inhibitors of 5'UTR Stem-Loop Driven Prion Protein mRNA Translation in H4 Neuroglioblastoma Cells. [Related pubchem assays: 1827 (Project Summary), 1813 (Primary HTS)]; assay type: functional
[12] = system: Streptococcus sp. 'group A'; assay: Streptococcus pyogenes SK(-)GAS viability under kanamycin – luminescence, BacTiterGlo, confirmation, counter-screen for streptokinase expression inhibitor project, dose response (AID 1900); assay type: functional, organism-based
Streptococcus = assay: GAS UMAA2166 growth inhibition – luminescence, BacTiterGlo, counter-screen for streptokinase expression inhibitor project, dose response (AID 1915); assay type: functional, organism-based;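 also: potency for reduction of bacterial viability or growth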
[13] = NIH-3T3 fibroblast cytotoxicity, dose response, cytotoxicity control, cell-based, fluorescence, Alamar Blue, secondary assay (AID 2327); assay type: functional;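 also: NIH-3T3 mouse fibroblasts cultured with fluconazole at 8 µg/mL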
Large T antigen = Large T antigen (Simian virus 40, UniProt P03070); assay type: functional, Betapolyomavirus macacae;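 also: Confirmatory-stage PubChem screen for compounds that inhibit SV40 T antigen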
Chain of Large T antigen (P03070 whole entry): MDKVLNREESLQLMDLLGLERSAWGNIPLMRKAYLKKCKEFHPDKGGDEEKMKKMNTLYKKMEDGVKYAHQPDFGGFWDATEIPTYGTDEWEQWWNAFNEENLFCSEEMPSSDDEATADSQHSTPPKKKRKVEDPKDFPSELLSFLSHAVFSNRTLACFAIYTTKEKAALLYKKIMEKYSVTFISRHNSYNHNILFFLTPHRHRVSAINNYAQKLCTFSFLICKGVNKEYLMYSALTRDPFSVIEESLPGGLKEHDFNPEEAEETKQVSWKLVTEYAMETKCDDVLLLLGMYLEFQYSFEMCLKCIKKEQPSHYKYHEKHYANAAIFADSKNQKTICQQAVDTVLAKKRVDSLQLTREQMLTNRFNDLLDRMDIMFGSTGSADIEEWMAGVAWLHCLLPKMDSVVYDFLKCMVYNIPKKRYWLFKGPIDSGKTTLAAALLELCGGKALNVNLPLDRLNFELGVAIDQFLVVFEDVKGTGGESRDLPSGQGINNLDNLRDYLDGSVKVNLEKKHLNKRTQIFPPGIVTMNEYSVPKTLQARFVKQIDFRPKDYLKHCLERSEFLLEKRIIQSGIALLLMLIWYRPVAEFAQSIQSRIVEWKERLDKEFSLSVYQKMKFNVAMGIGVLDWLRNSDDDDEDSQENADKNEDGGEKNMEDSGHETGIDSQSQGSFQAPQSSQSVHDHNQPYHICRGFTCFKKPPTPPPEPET

Protein skinhead-1 = molecular target: T3, Protein skinhead-1 (Caenorhabditis elegans, UniProt P34707); assay type: functional
T3 sequence (P34707 whole entry): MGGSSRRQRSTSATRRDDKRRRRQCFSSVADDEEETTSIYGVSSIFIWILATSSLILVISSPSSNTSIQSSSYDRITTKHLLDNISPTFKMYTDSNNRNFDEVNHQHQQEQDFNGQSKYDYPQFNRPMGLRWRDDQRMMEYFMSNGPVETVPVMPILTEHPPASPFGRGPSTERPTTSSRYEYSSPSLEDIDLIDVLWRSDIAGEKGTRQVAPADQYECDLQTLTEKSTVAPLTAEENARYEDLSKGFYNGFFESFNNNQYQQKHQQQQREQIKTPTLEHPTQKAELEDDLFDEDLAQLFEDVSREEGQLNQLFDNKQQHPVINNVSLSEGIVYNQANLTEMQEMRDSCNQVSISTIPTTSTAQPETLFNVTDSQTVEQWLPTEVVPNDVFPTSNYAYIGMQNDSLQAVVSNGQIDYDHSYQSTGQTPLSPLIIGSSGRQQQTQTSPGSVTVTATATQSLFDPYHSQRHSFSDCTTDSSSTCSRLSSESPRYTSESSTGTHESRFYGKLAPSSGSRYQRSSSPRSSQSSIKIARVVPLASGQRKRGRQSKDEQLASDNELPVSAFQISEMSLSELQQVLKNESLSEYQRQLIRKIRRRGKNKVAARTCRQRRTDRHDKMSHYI

[14] = molecular target: T4, Heat shock factor protein 1 (Mus musculus, UniProt P38532); assay: enhancement of HSF1-driven luciferase signal – cell-based, NIH3T3, luminescence, dose retest, confirmation (AID 435004); assay type: functional;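 also: stress induced by proteasome inhibitor MG132 added 30 min after compound; luciferase reporter driven by HSF1 response element in NIH3T3 cells; actives raise luminescence as potentiators of the MG132 stress response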
T4 sequence (P38532 whole entry): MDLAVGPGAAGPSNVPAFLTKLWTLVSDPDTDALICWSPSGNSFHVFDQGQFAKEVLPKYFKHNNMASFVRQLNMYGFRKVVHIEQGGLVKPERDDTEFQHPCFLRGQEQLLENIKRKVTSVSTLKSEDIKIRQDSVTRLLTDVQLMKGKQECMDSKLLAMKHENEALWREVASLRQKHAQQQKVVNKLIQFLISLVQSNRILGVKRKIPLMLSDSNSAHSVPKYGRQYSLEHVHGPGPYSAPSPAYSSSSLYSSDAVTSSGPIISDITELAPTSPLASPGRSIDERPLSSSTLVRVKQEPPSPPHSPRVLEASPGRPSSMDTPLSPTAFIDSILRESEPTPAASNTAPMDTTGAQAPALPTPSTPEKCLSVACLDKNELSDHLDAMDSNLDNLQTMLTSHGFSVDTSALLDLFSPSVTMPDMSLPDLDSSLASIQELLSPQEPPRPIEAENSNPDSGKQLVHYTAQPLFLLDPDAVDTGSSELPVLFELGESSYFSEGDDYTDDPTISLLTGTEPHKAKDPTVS

[15] = THP-1 cell cytotoxicity, dose response, cytotoxicity control for non-replicating M. tuberculosis project (AID 489025); assay type: functional
cells [16] = assay type: functional

CCCCNC(=O)CCn1c(=O)c2ccccc2n(Cc2ccc(Cl)cc2)c1=O
EC50 [1]: 18 µM (active) | EC50 [2]: 19.5 µM (active)

CN(C1CCCCC1)S(=O)(=O)c1ccc(C(=O)N2CCN(c3nc4ccccc4s3)CC2)cc1
AC50 (HEK293): 2.85 µM (active)

O=C(NNC(=O)c1cc(Cl)ccc1[N+](=O)[O-])c1csc(N2CCOCC2)n1
EC50 [3]: > 300 µM (inconclusive)

COc1ccc(Cn2c(=N)c(C(=O)NCC3CCCO3)cc3c(=O)n4ccccc4nc32)cc1 (stereo not drawn)
EC50 [4]: > 50 µM (active)

Cc1occc1C(=O)NC1CCCCCC1
EC50 (cells [5]): > 350 µM (not active) | EC50 (cells [6]): 73 µM (active)

COC(=O)C1=C(C)N(Cc2ccc(OC)cc2)C(=O)C1
EC50 (cells [5]): > 350 µM (not active) | EC50 (cells [6]): > 350 µM (not active)

N#Cc1c2ccc([N+](=O)[O-])cc2[n+]([O-])n1-c1ccccc1
AC50 (INS1): 3.15 µM (active) | AC50 [7]: 2.86 µM (active)

CCc1nc(SCC(=O)N2c3ccccc3CC2C)c2c(C)c(C)sc2n1 (stereo not drawn)
EC50 (Streptokinase A): 57.8 µM (active) | CC50 [8]: 5.39 µM (active) | IC50 (cells [9]): 3.55 µM (active) | EC50 [10]: > 120 µM (not active) | EC50 [11]: 18 µM (active) | EC50 [12]: 13.8 µM (active) | EC50 (Streptococcus): > 150 µM (not active)

CN(C)c1ccc(NC(=O)/C=C/c2c(Cl)cccc2Cl)cc1
CC50 [8]: 17.3 µM (active) | IC50 (cells [9]): 10.2 µM (active)

O=c1cc(CN2CCN(Cc3ccccc3)CC2)c2ccc(O)c(O)c2o1
EC50 [13]: > 160 µM (inactive) | IC50 (Large T antigen): 4.91 µM (active)

Cc1ccc(S/C=C\C(=O)c2ccccc2)cc1
IC50 (Protein skinhead-1): 32.9 µM (active) | EC50 [14]: 8.81 µM (active) | EC50 [1]: 98.5 µM (active) | EC50 [2]: 33.1 µM (active)

COc1ccc(S(=O)(=O)N2CCOC2CNC(=O)C(=O)NCc2ccc3c(c2)OCO3)cc1OC (stereo not drawn)
EC50 (cells [5]): > 350 µM (not active) | EC50 (cells [6]): > 350 µM (not active)

N=C(NOS(=O)(=O)c1ccccc1)c1cccnc1
EC50 [4]: > 50 µM (active)

CCOC(=O)c1c(C)[nH]c(C(=O)OCC(=O)Nc2cc(C)c(Cl)cc2OC)c1C
EC50 [1]: 12.8 µM (active) | EC50 [2]: 16.2 µM (active)

O=[N+]([O-])c1ccc(CNc2cccc(Cl)c2)s1
CC50 [15]: > 40 µM (active) | IC50 (cells [16]): 48.6 µM (active)
